Patent publication US11578055B2, “Triazacyclododecansulfonamide (“TCD”)-based protein secretion inhibitors” (KEZAR LIFE SCIENCES, priority 2018, dated 2023)
Where two headings read alike, the source gives them in different places.

Key:
[1] = In Vitro Microsome Stability Assay (human); format: in vitro ADME; details: human liver microsomes, 30 min w/ NADPH
Procedure, shortened: (§1)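 Species liver microsomes in potassium phosphate buffer were preincubated at 37 °C for 3–5 min with test compound (added from 0.25 mM DMSO stock), then started with NADPH. Samples at 0 and 30 min were quenched with acetonitrile containing internal standard and analysed by LC-MS/MS; % remaining at 30 min used analyte/IS AUC ratios relative to t=0.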

[2] = In Vitro Microsome Stability Assay (monkey); format: in vitro ADME; details: monkey liver microsomes, 30 min w/ NADPH
Procedure, shortened: as §1

[3] = system: multiple myeloma cell line U266B1; assay: U266 Cell Viability Assay; format: cell-based, human; details: 48 hr
Procedure, shortened: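 Viability was measured by CellTiter-Glo luminescence after 48 h compound exposure at 37° C, 5% CO2. The cells were U266B1 multiple myeloma cells grown in RPMI 1640 plus 10% FBS. Where stereochemistry is not shown, values apply to the stereoisomer mixture.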

[4] = system: multiple myeloma cell line NCl-H929; assay: H929 Cell Viability Assay; format: cell-based, human
Procedure, shortened: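 Viability was determined by CellTiter-Glo luminescence after a 48 h, 37 °C exposure of NCI-H929 cells to serial compound dilutions in medium containing 10% FBS. Where stereochemistry is not shown, values refer to a mix of stereoisomers.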

[5] = system: full length TNFα (amino acids 1-233) fused to Gaussia Luciferase; assay: Dox Induced TNFα-FL-Gluc Assay; format: cell-based; details: 24 hr, read-out: 24 hr Dox Inducible TNFaFLGluc 293FRT/TO: Mean IC50
Procedure, shortened: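 Compounds diluted in DMSO/medium with doxycycline were incubated at 37° C, 5% CO2 with 293 T-REx cells stably carrying a Tet-regulated TNFα(1-233)-Gaussia luciferase construct. Data for structures drawn without stereochemistry refer to stereoisomer mixtures.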

[6] = system: PD1 signal sequence plus 10 amino acids fused to Gaussia Luciferase (PD1-ss+10aa/Gaussia Luciferase); assay: Dox Induced PD1-ss-Gluc Assay; format: cell-based; details: 24 hr, read-out: 24 hr Dox Inducible PD1ssGluc 293FRT/TO: Mean IC50
Procedure, shortened: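 Compound dilutions in DMSO/media containing doxycycline were applied to a stable, inducible 293 T-REx line carrying the luciferase fusion, then incubated at 37 °C, 5% CO2. Where stereochemistry is not drawn, values relate to isomer mixtures.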

[7] = In Vitro Microsome Stability Assay (rat); format: in vitro ADME
Procedure, shortened: as §1

[8] = system: full length IL-2 (amino acids 1-153) fused to Gaussia Luciferase; assay: Dox Induced IL2-FL-Gluc Assay; format: cell-based; details: 24 hr, read-out: 24 hr Dox Inducible IL2FLGluc 293FRT/TO: Mean IC50
Description: FIp-In 293 T-REx™ cells were transfected with pcDNA™5/FRT/TO plasmid inserted with cDNA encoding Gaussia Luciferase fused to the 3′ end of cDNA encoding full length IL-2 (amino acids 1-153). Transfected cells were selected for resistance to the selectable markers Hygromycin and Blasticidin to create a stable cell line that contained the IL-2-FL/Gaussia Luciferase cDNA insert whose expression was regulated under the T-REx™ system. The day before assay, cells were trypsinized and plated in 384-well tissue culture plates. The next day, compound dilutions in DMSO/media containing doxycycline were added to the wells and incubated at 37° C., 5% CO2.
For chemical structures that include one or more stereoisomers, but are illustrated without indicating stereochemistry, the assay data refers to a mixture of stereoisomers.

[9] = In Vitro Microsome Stability Assay (mouse); format: in vitro ADME
Procedure, shortened: as §1

[10] = rat liver microsomes, 30 min w/ NADPH
[11] = mouse liver microsomes, 30 min w/ NADPH
[12] = Homo sapiens, U-266, U266, Celltiter-Glo
[13] = Homo sapiens, NCI-H929, 48 h, H929, Celltiter-Glo

Row | Compound | Liver Microsome Stability-% Left after 30 min w/ NADPH (%) Human [1] | Liver Microsome Stability-% Left after 30 min w/ NADPH (%) Monkey [2] | EC50 ([3]; U266, Celltiter-Glo) | EC50 ([4]; 48 hr, H929, Celltiter-Glo) | IC50 ([5]; Dox inducible, 293FRT/TO cells) | IC50 ([6]; Dox inducible, 293FRT/TO cells) | Liver Microsome Stability-% Left after 30 min w/ NADPH (%) Rat [7, 10] | IC50 ([8]; Dox inducible, 293FRT/TO cells) | Liver Microsome Stability-% Left after 30 min w/ NADPH (%) Mouse [9, 11] | EC50 [3, 12] | EC50 [4, 13] | EC50 ([3]; Homo sapiens, U-266, U266, read-out: 48 hr U266 Viability Celltiter-Glo: Mean EC50) | EC50 ([4]; Homo sapiens, NCI-H929, 48 h, H929, read-out: 48 hr H929 Viability Celltiter-Glo: Mean EC50) | IC50 ([5]; 293FRT/TO) | IC50 ([6]; 293FRT/TO) | Liver Microsome Stability-% Left after 30 min w/ NADPH (%) Rat ([7]; rat, 30 min, NADPH) | IC50 ([8]; 293FRT/TO) | Liver Microsome Stability-% Left after 30 min w/ NADPH (%) Mouse ([9]; mouse, 30 min, NADPH)
1 | C[C@H]1CN(S(=O)(=O)Cc2ccccc2)CCCN(CC2CCCCC2)CCCN(S(=O)(=O)N2CCc3cc(Cl)ccc3C2)C1 [A171, 6-chloro-2-{[(3S)-9-(cyclohexylmethyl)-3-methyl-5-phenylmethanesulfonyl-1,5,9-triazacyclododecan-1-yl]sulfonyl}-1,2,3,4-tetrahydroisoquinoline] | 0.60% | 0.26% | – | – | > 25000 nM | > 25000 nM | 0.90% | > 25000 nM | 0.91% | > 25000 nM | > 25000 nM | – | – | – | – | – | – | –
2 | Cc1cc(F)ccc1N1CC2(C1)CN(S(=O)(=O)N1CCCN(CC3CCCCC3)CCCN(S(=O)(=O)c3ccc(N(C)C)cc3)C[C@H](C)C1)C2 [A161, 4-{[(3S)-9-(cyclohexylmethyl)-5-{[6-(4-fluoro-2-methylphenyl)-2,6-diazaspiro[3.3]heptan-2-yl]sulfonyl}-3-methyl-1,5,9-triazacyclododecan-1-yl]sulfonyl}-N,N-dimethylaniline] | 20.2% | 16.7% | – | – | > 25000 nM | 577 nM | 27.3% | 726 nM | 26.5% | > 25000 nM | > 25000 nM | – | – | – | – | – | – | –
3 | C[C@@H]1CCN(S(=O)(=O)N2CCc3cc(Cl)ccc3C2)CCCN(CC2CCCCC2)CCCN1S(=O)(=O)c1ccc(N(C)C)cc1 [A149, 4-{[(2 R)-5-[(6-chloro-1,2,3,4-tetrahydroisoquinolin-2-yl)sulfonyl]-9-(cyclohexylmethyl)-2-methyl-1,5,9-triazacyclododecan-1-yl]sulfonyl}-N,N-dimethylaniline] | 0.44% | 0.96% | – | – | > 25000 nM | > 25000 nM | 0.47% | > 25000 nM | 0.83% | > 25000 nM | > 25000 nM | – | – | – | – | – | – | –
4 | C[C@H]1CN(S(=O)(=O)c2ccc(N(C)C)cc2)CCCN(CC2CCCCC2)CCCN(S(=O)(=O)N2CCNCC2)C1 [A155, 4-{[(3S)-9-(cyclohexylmethyl)-3-methyl-5-(piperazine-1-sulfonyl)-1,5,9-triazacyclododecan-1-yl]sulfonyl}-N, N-dimethylaniline] | 17.8% | 4.86% | – | – | – | 1350 nM | 38.8% | 3480 nM | 16.8% | > 25000 nM | 7800 nM | – | – | – | – | – | – | –
5 | CC(C)N1CCCN(S(=O)(=O)c2ccc(N(C)C)cc2)C[C@H](C)CN(S(=O)(=O)N2CCc3cc(Cl)ccc3C2)CCC1 [A141, 4-{[(3S)-5-[(6-chloro-1,2,3,4-tetrahydroisoquinolin-2-yl)sulfonyl]-3-methyl-9-(propan-2-yl)-1,5,9-triazacyclododecan-1-yl]sulfonyl}-N,N-dimethylaniline] | 0.26% | 0.66% | – | – | 4240 nM | 431 nM | 1.14% | 863 nM | 0.48% | > 25000 nM | 9110 nM | – | – | – | – | – | – | –
6 | Cc1ccc(N2CCN(S(=O)(=O)N3CCCN(CC4CCCCC4)CCCN(S(=O)(=O)c4ccc(N(C)C)cc4)C[C@H](C)C3)CC2)cc1 [A99, 4-{[(3S)-9-(cyclohexylmethyl)-3-methyl-5-{[4-(4-methylphenyl)piperazin-1-yl]sulfonyl}-1,5,9-triazacyclododecan-1-yl]sulfonyl}-N,N-dimethylaniline] | 41.9% | 37% | – | – | – | – | – | – | – | – | – | > 25000 nM | > 25000 nM | 3540 nM | 116 nM | 50.8% | 350 nM | 60.8%

Results, then the compound that gave them:

Row | Liver Microsome Stability-% Left after 30 min w/ NADPH (%) Human [1] | Liver Microsome Stability-% Left after 30 min w/ NADPH (%) Monkey [2] | EC50 ([3]; U266, Celltiter-Glo) | EC50 ([4]; 48 hr, H929, Celltiter-Glo) | IC50 ([5]; Dox inducible, 293FRT/TO cells) | IC50 ([6]; Dox inducible, 293FRT/TO cells) | Liver Microsome Stability-% Left after 30 min w/ NADPH (%) Rat [7, 10] | IC50 ([8]; Dox inducible, 293FRT/TO cells) | Liver Microsome Stability-% Left after 30 min w/ NADPH (%) Mouse [9, 11] | EC50 [3, 12] | EC50 [4, 13] | EC50 ([3]; Homo sapiens, U-266, U266, read-out: 48 hr U266 Viability Celltiter-Glo: Mean EC50) | EC50 ([4]; Homo sapiens, NCI-H929, 48 h, H929, read-out: 48 hr H929 Viability Celltiter-Glo: Mean EC50) | IC50 ([5]; 293FRT/TO) | IC50 ([6]; 293FRT/TO) | Liver Microsome Stability-% Left after 30 min w/ NADPH (%) Rat ([7]; rat, 30 min, NADPH) | IC50 ([8]; 293FRT/TO) | Liver Microsome Stability-% Left after 30 min w/ NADPH (%) Mouse ([9]; mouse, 30 min, NADPH) | Compound
7 | 64.2% | 57.5% | > 25000 nM | 13600 nM | 1930 nM | 55.6 nM | 54.9% | 81.2 nM | 72.8% | – | – | – | – | – | – | – | – | – | Cc1cc(F)ccc1N1CCN(S(=O)(=O)N2CCCN(CC3CCCCC3)CCCN(S(=O)(=O)c3ccc(N(C)C)cc3)C[C@H](C)C2)C(C)C1 (stereo in doubt) [A163, 4-{[(3S)-9-(cyclohexylmethyl)-5-{[(2 R)-4-(4-fluoro-2-methylphenyl)-2-methylpiperazin-1-yl]sulfonyl}-3-methyl-1,5,9-triazacyclododecan-1-yl]sulfonyl}-N,N-dimethylaniline]
8 | 4.26% | 2.27% | – | – | 393 nM | 9.35 nM | 6.28% | 40.4 nM | 6.73% | > 25000 nM | 1440 nM | – | – | – | – | – | – | – | COc1c(F)cccc1N1CCN(S(=O)(=O)N2CCCN(CC3CCCCC3)CCCN(S(=O)(=O)c3ccc(N(C)C)cc3)C[C@H](C)C2)CC1 [A175, 4-{[(3S)-9-(cyclohexylmethyl)-5-{[4-(3-fluoro-2-methoxyphenyl)piperazin-1-yl]sulfonyl}-3-methyl-1,5,9-triazacyclododecan-1-yl]sulfonyl}-N,N-dimethylaniline]
9 | 21.1% | 27.3% | – | – | 584 nM | 23.3 nM | 32.2% | 77.4 nM | 23.3% | > 25000 nM | 858 nM | – | – | – | – | – | – | – | C[C@H]1CN(S(=O)(=O)c2ccc(N(C)C)cc2)CCCN(CC2CCCC2)CCCN(S(=O)(=O)N2CCc3cc(Cl)ccc3C2)C1 [A157, 4-{[(3S)-5-[(6-chloro-1,2,3,4-tetrahydroisoquinolin-2-yl)sulfonyl]-9-(cyclopentylmethyl)-3-methyl-1,5,9-triazacyclododecan-1-yl]sulfonyl}-N,N-dimethylaniline]
10 | 8.84% | 12.5% | – | – | 947 nM | 73.9 nM | 17.1% | 156 nM | 13.2% | > 25000 nM | 2400 nM | – | – | – | – | – | – | – | COc1cccc2c1CCN(S(=O)(=O)N1CCCN(CC3CCCCC3)CCCN(S(=O)(=O)c3ccc(N(C)C)cc3)C[C@H](C)C1)C2 [A138, 4-{[(3S)-9-(cyclohexylmethyl)-5-[(5-methoxy-1,2,3,4-tetrahydroisoquinolin-2-yl)sulfonyl]-3-methyl-1,5,9-triazacyclododecan-1-yl]sulfonyl}-N,N-dimethylaniline]
